According to patent US9090899B2, “Methods of diagnosing and treating prostate cancer characterized by NDRG1-ERG fusion” (CORNELL UNIVERSITY, priority 2009, dated 2015):

What was measured:
Format in all cases: cell-based
[1] = system: SLC45A3 mRNA; assay: Hormone treatment of LNCaP cells, SLC45A3 mRNA by TAQMAN quantitative RT-PCR; details: for Induction of SLC45A3 mRNA: LNCaP cells, 3 hours, 10 nM 17β-estradiol or 10 nM DPN; for SLC45A3 mRNA expression: serum-starved LNCaP cells, 1 nM R1881 or 10 nM E2, 3, 12 and 24 h, fold change against vehicle (Ethanol), normalized against TCFL1
Description: (§1) FIG. 6. Hormone treatment of LNCaP cells induced SLC45A3 and NDRG1 mRNA expression. SLC45A3 (A and C) or NDRG1 (B and D) mRNA expression was induced upon stimulation with synthetic androgen (R1881) and 17β-estradiol (E2). Serum-starved LNCaP cells were stimulated with 1 nM R1881, 1 nM R1881 in combination with 10 μM Flutamide (A and B), 10 nM E2 or 10 nM diarylpropionitrile (DPN) (C and D) for 3, 12 and 24 h. Samples were run in triplicate and normalized against TCFL1. Columns indicate the mean fold change of induction of three biological replicates against vehicle (Ethanol) only treated cells for the respective time points±SEM.
(§2) Hormone Treatment of LNCaP—The prostate cancer cell line LNCaP was obtained from ATCC (Manassas, Va.; cat.#CRL-1740) and maintained according to the suppliers instructions. For hormonal treatment, cells were plated (500,000 cells/10 cm^2) in the presence of complete growth medium supplemented with 1% Penicillin/Streptomycin. Cells were starved for 48 h in charcoal-stripped (CS) medium (RPMI-1640 1×, 5% charcoal-stripped […], 1% Penicillin/Streptomycin) and then treated with R1881 (1 nM), 17β-estradiol (10 nM), diarylpropionitrile (DPN, 10 nM) or ethanol vehicle for 3, 12, and 24 hours. RNA was extracted using the TRIzol Reagent (Invitrogen, Carlsbad, Calif.), subjected to DNase treatment (DNA-free™ Kit, Applied Biosystems) according to the manufacturer's instructions. To test for the specificity of androgen-stimulation, cells were treated with10 μM Flutamide for 2 hours and then treated with R1881 as described above. TAQMAN expression assays (Applied Biosystems) were used to quantify relative levels of SL45A3, NDRG1, PSA (KLK3) and IGF1R.

[2] = system: NDRG1 mRNA; assay: Hormone treatment of LNCaP cells, NDRG1 mRNA by TAQMAN quantitative RT-PCR; details: for Induction of NDRG1 mRNA: LNCaP cells, 12 hours, 10 nM 17β-estradiol or 10 nM DPN; for NDRG1 mRNA expression: serum-starved LNCaP cells, 1 nM R1881 or 10 nM E2, 3, 12 and 24 h, fold change against vehicle (Ethanol), normalized against TCFL1
Description: as §1, §2

[3] = system: PSA (KLK3) mRNA; assay: Hormone treatment of LNCaP cells, PSA mRNA by TAQMAN quantitative RT-PCR; details: serum-starved LNCaP cells; 1 nM R1881 or 10 nM E2; 3, 12 and 24 h; fold change against vehicle (Ethanol), normalized against TCFL1
Description: (§3) FIG. 7. Androgen and 17β-estradiol (E2) signaling of known target genes in LNCaP cells. IGF2R (A) and PSA (B) mRNA expression was induced upon stimulation with synthetic androgen (R1881) and E2. Serum-starved LNCaP cells were stimulated with 1 nM R1881, 1 nM R1881 in combination with 10 μM Flutamide, 10 nM E2 or 10 nM diarylpropionitrile (DPN) for 3, 12 and 24 h. Total RNA was extracted and used for quantitative RT-PCR using TAQMAN assay. Samples were run in triplicate and normalized against TCFL1. Columns indicate the mean fold change of induction of three biological replicates against vehicle (Ethanol) only treated cells for the respective time points±SEM.
as §2, with “RNA was extracted using the TRIzol Reagent (Invitrogen, Carlsbad, Calif.), subjected to DNase treatment (DNA-free™ Kit, Applied Biosystems) according to the manufacturer's instructions. To test for the specificity of androgen-stimulation, cells were treated with10 μM Flutamide for 2 hours and then treated with R1881 as described above.” left out

[4] = system: IGF2R mRNA; assay: Hormone treatment of LNCaP cells, IGF2R mRNA by TAQMAN quantitative RT-PCR; details: serum-starved LNCaP cells; 1 nM R1881 or 10 nM E2; 3, 12 and 24 h; fold change against vehicle (Ethanol), normalized against TCFL1
Description: as §3
as §2, with “RNA was extracted using the TRIzol Reagent (Invitrogen, Carlsbad, Calif.), subjected to DNase treatment (DNA-free™ Kit, Applied Biosystems) according to the manufacturer's instructions. To test for the specificity of androgen-stimulation, cells were treated with10 μM Flutamide for 2 hours and then treated with R1881 as described above.” left out

Structure (SMILES) | Induction of SLC45A3 mRNA [1] | Induction of NDRG1 mRNA [2] | PSA mRNA expression [3] | IGF2R mRNA expression [4] | SLC45A3 mRNA expression [1] | NDRG1 mRNA expression [2]
N#CC(Cc1ccc(O)cc1)c1ccc(O)cc1 (stereo not drawn) [DPN, diarylpropionitrile] | not | not |  |  |  | 
C[C@]12CC[C@@H]3c4ccc(O)cc4CC[C@H]3[C@@H]1CC[C@@H]2O [17β-estradiol] | observed | observed | induced | induced | induced | induced
C[C@]1(O)CC[C@H]2[C@@H]3CCC4=CC(=O)CCC4=C3C=C[C@@]21C [R1881] |  |  | induced | induced | induced | induced
